Reference: ChEMBL document CHEMBL1287767, “Experimental solubility profiling of marketed CNS drugs, exploring solubility limit of CNS discovery candidate” (Bioorg Med Chem Lett, 2010)
Values after ≈ are worked out from the molar mass of the structure shown.

How the values were obtained:
[1] = Solubility of the compound in 0.1 M phosphate buffer at 600 uM at pH 7.4 after 24 hrs by LC/MS/MS analysis; conditions: pH 7.4
[2] = Solubility of the compound in Mcllvaine buffer at pH 7.4; assay type: physicochemical; conditions: McIlvaine buffer
[3] = Solubility of the compound at pH 7.4; assay type: physicochemical; conditions: buffer
[4] = Solubility of the compound in water; assay type: physicochemical
[5] = Solubility of the compound; assay type: physicochemical
[6] = Solubility of the compound in PBS at pH 7.4; assay type: physicochemical; conditions: PBS, read-out: solubility
[7] = Solubility of the compound in water at pH 7.4; assay type: physicochemical

| SMILES | solubility at 24 h, 600 µM ([1]; 0.1 M phosphate buffer) | further results |
| --- | --- | --- |
| Fc1ccc([C@@H]2CCNC[C@H]2COc2ccc3c(c2)OCO3)cc1 [PAROXETINE] | > 500 µM | – |
| Cc1cc2c(s1)Nc1ccccc1N=C2N1CCN(C)CC1 [OLANZAPINE] | > 500 µM | – |
| C[C@@](Cc1ccc(O)c(O)c1)(NN)C(=O)O.O [CARBIDOPA] | > 500 µM | – |
| Nc1nnc(-c2cccc(Cl)c2Cl)c(N)n1 [LAMOTRIGINE] | 307 µM (≈ 78.6 µg/mL) | solubility [2]: 0.00048 mg/mL (≈ 0.00187 mM) |
| NCC1(CC(=O)O)CCCCC1 [GABAPENTIN] | > 500 µM | solubility [3]: 0.441 mg/mL |
| O=C1NC(=O)C(c2ccccc2)(c2ccccc2)N1 [PHENYTOIN] | 80 µM (≈ 20.2 µg/mL) | solubility [4]: 0.032 mg/mL (≈ 0.127 mM) |
| O=C(O[C@@H]1C[C@@H]2C[C@H]3C[C@H](C1)N2CC3=O)c1c[nH]c2ccccc12 [DOLASETRON] | 195 µM (≈ 63.3 µg/mL) | – |
| O=C(NCCN1CCOCC1)c1ccc(Cl)cc1 [MOCLOBEMIDE] | > 500 µM | – |
| Fc1ccccc1C1=NCC(=S)N(CC(F)(F)F)c2ccc(Cl)cc21 [QUAZEPAM] | 0.3 µM (≈ 0.116 µg/mL) | – |
| CCOC(=O)Nc1ccc(NCc2ccc(F)cc2)nc1N [FLUPIRTINE] | > 500 µM | – |
| O=C1Cc2cc(CCN3CCN(c4nsc5ccccc45)CC3)c(Cl)cc2N1 [ZIPRASIDONE] | 1.05 µM (≈ 0.434 µg/mL) | solubility [5]: 0.08 µg/mL (≈ 0.000194 mM) |
| CN1CCC[C@@H]1Cc1c[nH]c2ccc(CCS(=O)(=O)c3ccccc3)cc12 | > 500 µM | – |
| Cc1ccc(C(=O)c2cc(O)c(O)c([N+](=O)[O-])c2)cc1 [TOLCAPONE] | > 500 µM | solubility [3]: 0.115 mg/mL |
| CCCN1C[C@H](CSC)C[C@@H]2c3cccc4[nH]cc(c34)C[C@H]21 [PERGOLIDE] | 2.1 µM (≈ 0.66 µg/mL) | – |
| CCCC(CCC)C(=O)O [VALPROIC ACID] | > 500 µM | – |
| CCC1(c2cccc(O)c2)CCCCN(C)C1 (stereo not drawn) [MEPTAZINOL] | > 500 µM | – |
| CCC(=O)O[C@](Cc1ccccc1)(c1ccccc1)[C@H](C)CN(C)C [PROPOXYPHENE] | 250 µM (≈ 84.9 µg/mL) | – |
| CN(C)CCCC1(c2ccc(F)cc2)OCc2cc(C#N)ccc21 (stereo not drawn) [CITALOPRAM] | > 500 µM | – |
| CCCN[C@H]1CCc2nc(N)sc2C1 [PRAMIPEXOLE] | – | solubility at 24 h, 600 µM ([1]; buffer): > 500 µM; solubility [5]: > 10000 µg/mL |
| CC(NC(C)(C)C)C(=O)c1cccc(Cl)c1 (stereo not drawn) [BUPROPION] | 328 µM (≈ 78.6 µg/mL) | solubility [6]: 10 mg/mL (≈ 41.7 mM) |
| NC(=O)N1c2ccccc2CC(=O)c2ccccc21 [OXCARBAZEPINE] | 245 µM (≈ 61.8 µg/mL) | solubility [4]: 0.308 mg/mL (≈ 1.22 mM) |

| SMILES | solubility at 24 h, 600 µM ([1]; 0.1 M phosphate buffer) | further results |
| --- | --- | --- |
| CN1C2CCCC1CC(NC(=O)c1nn(C)c3ccccc13)C2 (stereo not drawn) [GRANISETRON] | > 500 µM | – |
| CC(C)CC(N(C)C)C1(c2ccc(Cl)cc2)CCC1 (stereo not drawn) [SIBUTRAMINE] | 143 µM (≈ 40 µg/mL) | – |
| CN(C)CCc1c[nH]c2ccc(Cn3cncn3)cc12 [RIZATRIPTAN] | > 500 µM | – |
| NC(=O)C[S+]([O-])C(c1ccccc1)c1ccccc1 (stereo not drawn) [MODAFINIL] | > 500 µM | – |
| CCCCN1CCCCC1C(=O)Nc1c(C)cccc1C (stereo not drawn) [BUPIVACAINE] | 352 µM (≈ 102 µg/mL) | solubility [7]: 0.42 mg/mL (≈ 1.46 mM) |
| COc1cccc(C2(O)CCCCC2CN(C)C)c1 (stereo not drawn) [TRAMADOL] | > 500 µM | – |
| CCc1nn(CCCN2CCN(c3cccc(Cl)c3)CC2)c(=O)n1CCOc1ccccc1 [NEFAZODONE] | 9.9 µM (≈ 4.65 µg/mL) | – |
| O=C1CC[C@@]2(O)[C@H]3Cc4ccc(O)c5c4[C@@]2(CCN3CC2CC2)[C@H]1O5 [NALTREXONE] | > 500 µM | – |
| COc1ccc(C(=O)N2CCCC2=O)cc1 | 500 µM (≈ 110 µg/mL) | – |
| CNCC[C@@H](Oc1ccccc1C)c1ccccc1 [ATOMOXETINE] | > 500 µM | – |
| Cc1ccc(-c2nc3ccc(C)cn3c2CC(=O)N(C)C)cc1 [ZOLPIDEM] | 260 µM (≈ 79.9 µg/mL) | solubility [3]: > 250 µM |
| COCCCC/C(=N\OCCN)c1ccc(C(F)(F)F)cc1 [FLUVOXAMINE] | > 500 µM | – |
| CN(C)CCc1c[nH]c2ccc(C[C@H]3COC(=O)N3)cc12 [ZOLMITRIPTAN] | > 500 µM | – |
| CC[C@@H](C(N)=O)N1CCCC1=O | > 500 µM | solubility [4]: 1000 mg/mL (≈ 5880 mM) |
| CN1CCN(C(=O)OC2c3nccnc3C(=O)N2c2ccc(Cl)cn2)CC1 (stereo not drawn) [ZOPICLONE] | 219 µM (≈ 85.2 µg/mL) | – |
| CCCN(CCC)CCc1cccc2c1CC(=O)N2 [ROPINIROLE] | > 500 µM | – |
| CNCC[C@H](Oc1cccc2ccccc12)c1cccs1 [DULOXETINE] | – | solubility at 24 h, 600 µM ([1]; buffer): > 500 µM |
| C=CC(N)CCC(=O)O (stereo not drawn) [VIGABATRIN] | > 500 µM | – |
| CN1[C@@H]2CC[C@H]1C[C@@H](OC(=O)c1c[nH]c3ccccc13)C2 [TROPISETRON] | > 500 µM | – |
| Cc1ccsc1C(=CCCN1CCC[C@@H](C(=O)O)C1)c1sccc1C [TIAGABINE] | > 500 µM | – |
| C=CCN1CCc2nc(N)sc2CC1 [TALIPEXOLE] | 133 µM (≈ 27.8 µg/mL) | – |
